Entries after “also recorded” stand apart in the source; their conditions may differ. Where a SMILES comes first, the peptide text is derived from it. Bridges are numbered along the chain shown (N, C = ends). [ ]: non-standard residue; d: D form. Tic = O=C(O)[C@@H]1Cc2ccccc2CN1; Pen = CC(C)(S)[C@H](N)C(=O)O; Mpa = O=C(O)CCS
Tests used:
[1] = biological target: T1, α5 β1 (FnR) (Homo sapiens, UniProt P05556+P08648); assay: α5 β1 ELISA (competitive); assay type: binding; details: comparison of receptor ELISAs
T1 construct: Fibronectin receptor (FnR) was purified from 100 mM octyl-glucopyranoside-extracted human placenta; from tissue
Protocol: Peptide binding to purified human α5 β1 (FnR) also as determined using a competitive ELISA. In these assays, […] was immobilized to the wells and the binding of solubilized FnR in the presence of various concentrations of a peptide analogue was determined using a mouse monoclonal antibody to human β1 (clone P4C10; Gibco) and specific binding was visualized using a second antibody.
Microtiter wells were coated at RT by adding 100 μl of 2 μg/ml human Fn in TBS and incubating the plates overnight at 4° C. Following incubation, the plates were washed 3× with TBS/"TWEEN 20". RGD peptides were diluted in TBS containing 20 mM OG and 2 mM MnCl2 and 50 μl was added to wells at 10-fold serial dilutions. FnR was diluted in the same buffer and 50 μl was added to each well.
The plates were incubated for 3 hr at RT and washed with 300 μl TBS/"TWEEN 20". Bound receptor was incubated with 100 μl of the monoclonal anti-β1 antibody for 2 hr, then washed 3× with TBS/"TWEEN 20". […] The amount of bound second antibody was determined as described above.
The IC50 values for various RGD peptides were calculated by determining the concentration of a peptide that inhibited binding of Vn to αv β5 or αv β3 or of Fn to α5 β1 by 50%. The results of these assays are shown in FIG. 2 (columns designated "Receptor Assays").

[2] = series of assays of Examples II and III for potency and selectivity
Excerpt: Peptides of the RGDNTic (SEQ ID NO: 56) pharmacophore group are characterized, in general, as having increased potency, whereas the peptides of the pharmacophore RGDDV (SEQ ID NO: 1) group generally have higher receptor selectivity. […] As used herein, the term "potency" or "potent" means that a peptide of the invention is active at a relatively low concentration in the assays described in Examples II and III. A potent peptide of the invention can be identified, for example, using the assays described in Examples II and III.
The present invention also provides a series of in vitro and in vivo assays useful for screening a panel of peptides in order to identify peptides that can reduce or inhibit bone resorption or that can alter integrin binding such as αv β3 integrin receptor-mediated binding. Such peptides can include, for example, peptides within the pharmacophore groups exemplified herein or peptides within other pharmacophore groups. The series of assays disclosed herein is particularly useful for determining the selectivity and potency of a peptide for reducing or inhibiting bone resorption. The selectivity of a peptide for an integrin receptor involved in osteoclast binding to bone can be determined, for example, using the integrin receptor assays and cell attachment and detachment assays described herein. Use of cell-based assays in conjunction with receptor-based assays is informative because the receptor ELISAs provide useful information regarding the binding characteristics of a particular peptide toward a particular integrin and because the cell-based assays confirm that those characteristics are relevant to the αv β3 receptor or to bone resorption.

[3] = biological target: T2, αv β3 receptor (Homo sapiens, UniProt P05106+P06756); assay type: binding; details: comparison of IC50 values of αv β3 ELISA / JY cells with αv β5 and α5 β1 ELISAs
T2 construct: The αv β3 receptor was purified from octyl-glucopyranoside-extracted human placenta; from tissue
Protocol: Peptide binding to purified αv β3 receptor was determined by using a competitive ELISA, in which αv β3 receptor was immobilized and the binding of solubilized VN, in the presence of various concentrations of peptide analogue, was detected using a monoclonal mouse IgG anti-VN antibody and a labelled anti-mouse IgG conjugate.
96 well microtiter plates were coated overnight at RT with 100 μl/well of αv β3 receptor (0.5 μg/ml in 1×TBS, 4 mM octylglucoside, 1 mM CaCl2). The wells were blocked with 200 μl/well of 1% BSA in 1×TBS, 1 mM CaCl2 for at least 30 min. The plates were washed 2× with 1×TBS, 1 mM CaCl2. 50 μl peptide in 1×TBS, 1 mM CaCl2, 0.05% "TWEEN 20" (polyoxyethylenesorbitan monolaurate) was added in 10-fold serial dilutions. 50 μl of Vn in the same buffer then was added to each well.
The plates were incubated for 3 hr at RT, then washed 3× with 1×TBS, 0.05% "TWEEN 20". 100 μl of 8E6 (Telios) diluted to 1:6000 in 1×TBS, 0.05% "TWEEN 20" was added to the wells and the plates were incubated for 1 hr at RT. Plates were washed 3× with 1×TBS, 0.05% "TWEEN 20". Affinity purified goat anti-mouse IgG conjugated to horseradish peroxidase (100 μl/well; BioRad; Hercules Calif.) was added to each well and incubated for 1 hr at RT. Plates were washed 3× with 1×TBS, 0.05% "TWEEN 20". 100 μl/well of substrate mixture (10 mg O-phenylenediamine in 25 ml 0.1M citrate-phosphate buffer, pH 5.0, 6 μl 30% H2 O2) was added to the plates and allowed to develop. The development process was stopped by adding 50 μl to 4N H2 SO4 to each well. The plates were read at 490 nm and the data analyzed by four parameter fit.

[4] = Choi et al. 1994; cited from earlier work
[5] = tested on: osteoclasts; details: Sato et al. 1990; EP 437,367; cited from earlier work
[6] = Fisher et al. 1993; cited from earlier work
[7] = parathyroid hormone-induced hypercalcemia in mice; assay type: in vivo, Swiss-Webster mice; details: parathyroidectomized mice, 0.2 mg PTH/kg i.v., peptide infused 4 hr
Excerpt: Parathyroid hormone (PTH) activates osteoclasts, which are involved in bone resorption. Associated with the increased osteoclast activity is an increase in serum calcium. The PTH-induced hypercalcemia assay measures the level of serum calcium, which is an indication of bone resorption in a subject (Fischer et al., Endocrinology 132:1411-1413 (1993), which is incorporated herein by reference).
Swiss-Webster mice, which had been parathyroidectomized two weeks prior to beginning the assay, were obtained from Taconic Lab Animals and Services (Germantown N.Y.). Femoral vein catheters (PE-50 fused with PE10 polyethylene tubing; Becton Dickinson; Parsippany, N.J.) were installed in the mice, flushed and locked with heparinized saline (1:10), sutured to adjacent muscle and internalized within the inguinal space of the incision before closing the incision with wound clips. […]
The experiment was initiated by feeding the mice a calcium-deficient diet overnight, then injecting the mice the following morning with a bolus of 0.2 mg PTH/kg (hPTH 1-34; Bachem; Torrance Calif.), intravenously. […] Various doses of a peptide or vehicle were infused into an animal for 4 hr, then ionized serum calcium again was measured. […] Serum calcium measurements were expressed as the difference between the value 30 min before the PTH pulse and 4 hr after peptide infusion was started. […]

| Compound | selectivity toward α5 β1 versus αv β5 [1] | receptor selectivity for αv β3 as compared to αv β5 and α5 β1 [3] | also measured |
| --- | --- | --- | --- |
| C[C@H](NC(=O)[C@@H]1CSSC(C)(C)[C@H](NC(=O)CN)C(=O)N[C@@H](C)C(=O)N[C@@H](C)C(=O)N[C@@H](CCCNC(=N)N)C(=O)NCC(=O)N[C@@H](CC(=O)O)C(=O)N[C@@H](CC(N)=O)C(=O)N2CCC[C@H]2C(=O)N1)C(=O)O [compound 310] (H-G[Pen]AARGDNPCA-OH; disulfide 2-10) | more selective toward α5 β1 than toward αv β5 | – | – |
| CC(C)[C@@H]1NC(=O)[C@H](CC(=O)O)NC(=O)[C@H](CC(=O)O)NC(=O)CNC(=O)[C@H](CCCNC(=N)N)NC(=O)CNC(=O)C[C@@H](C(N)=O)NC1=O [peptide 368] (GRGDDVD-NH2; lactam N-7) | – | receptor selective for αv β3; also recorded: selective peptide; also recorded: particularly receptor selective | both potent and selective ([2]; summary of assays): both potent and selective |
| C[C@@H]1NC(=O)[C@H](CCCNC(=N)N)NC(=O)CNC(=O)CC[C@@H](C(N)=O)NC(=O)[C@@H]2CCCN2C(=O)[C@H](CC(N)=O)NC(=O)[C@H](CC(=O)O)NC(=O)CNC(=O)[C@H](CCCNC(=N)N)NC1=O [compound 390] (GRARGDNPE-NH2; lactam N-9) | more selective toward α5 β1 than toward αv β5 | – | – |
| C[C@H](NC(=O)[C@@H]1CSSC(C)(C)[C@H](NC(=O)CN)C(=O)N[C@@H](CCCNC(=N)N)C(=O)N[C@@H](C)C(=O)N[C@@H](CCCNC(=N)N)C(=O)NCC(=O)N[C@@H](CC(=O)O)C(=O)N[C@@H](CC(N)=O)C(=O)N2CCC[C@H]2C(=O)N1)C(=O)O [compound 100] (H-G[Pen]RARGDNPCA-OH; disulfide 2-10) | more selective toward α5 β1 than toward αv β5 | – | – |
| CC(=O)N[C@H]1CSSC[C@@H](C(N)=O)NC(=O)[C@@H]2Cc3ccccc3CN2C(=O)[C@H](CO)NC(=O)[C@H](CC(=O)O)NC(=O)CNC(=O)[C@H](CCCNC(=N)N)NC1=O [compound 812, Ac-CRGDS(Tic)C-NH2] (Ac-CRGDS[Tic]C-NH2; disulfide 1-7) | – | – | activity of minimal-element peptides (FIG. 2) [2]: demonstrate activity; potency (active at a relatively low concentration) ([2]; summary of assays): particularly potent |
| CC(=O)N[C@H]1CSSC(C)(C)[C@@H](C(N)=O)NC(=O)[C@@H]2CCCN2C(=O)[C@H](CC(N)=O)NC(=O)[C@H](CC(=O)O)NC(=O)CNC(=O)[C@H](CCCNC(=N)N)NC1=O [compound 228] (Ac-CRGDNP[Pen]-NH2; disulfide 1-7) | – | particularly receptor selective | – |
| CC(=O)N[C@@H]1C(=O)N[C@@H](Cc2ccccc2)C(=O)N[C@@H](C)C(=O)N[C@@H](CCCNC(=N)N)C(=O)NCC(=O)N[C@@H](CC(=O)O)C(=O)N[C@@H](CC(N)=O)C(=O)N2CCC[C@H]2C(=O)N[C@H](C(N)=O)CSSC1(C)C [peptide 214] (Ac-[Pen]FARGDNPC-NH2; disulfide 1-9) | – | – | potency (active at a relatively low concentration) ([2]; summary of assays): particularly potent |
| CC(C)[C@@H]1NC(=O)[C@H](CC(=O)O)NC(=O)[C@H](CC(=O)O)NC(=O)CNC(=O)[C@H](CCCNC(=N)N)NC(=O)[C@H](C)NC(=O)[C@H](CCCNC(=N)N)NC(=O)[C@@H](NC(=O)CN)C(C)(C)SSC[C@@H](C(=O)N[C@@H](C)C(=O)O)NC1=O [compound 138] (H-G[Pen]RARGDDVCA-OH; disulfide 2-10) | – | particularly receptor selective | – |
| G(Pen)GRGDSPCA | – | – | neointimal hyperplasia [4]: can inhibit neointimal hyperplasia |
| C[C@@H]1NC(=O)[C@H](C)NC(=O)[C@@H](NC(=O)CN)C(C)(C)SSC[C@@H](C(N)=O)NC(=O)[C@H]([C@@H](C)O)NC(=O)[C@H](CC(=O)O)NC(=O)[C@H](CC(=O)O)NC(=O)CNC(=O)[C@H](CCCNC(=N)N)NC1=O [compound 186] (H-G[Pen]AARGDDTC-NH2; disulfide 2-10) | – | particularly receptor selective | – |
| echistatin | – | – | bone resorption in vitro [5]: inhibits bone resorption in vitro; bone resorption in vivo [6]: inhibits bone resorption |
| N=C(N)NCCC[C@@H]1NC(=O)CC[C@@H](C(N)=O)NC(=O)[C@@H]2CCCN2C(=O)[C@H](CO)NC(=O)[C@H](CC(=O)O)NC(=O)CNC1=O [compound 825] (RGDSPE-NH2; lactam N-6) | more selective toward α5 β1 than toward αv β5 | – | – |
| CC(C)[C@@H]1NC(=O)[C@H](CC(=O)O)NC(=O)[C@H](CC(=O)O)NC(=O)CNC(=O)[C@H](CCCNC(=N)N)NC(=O)CCSSC[C@@H](C(N)=O)NC1=O [compound 191] ([Mpa]RGDDVC-NH2; disulfide 1-7) | – | – | PTH-induced rise in serum ionized calcium [7]: decreased the PTH-induced rise in serum ionized calcium in a dose responsive manner |
